This test deals with T1, rat NaP2b (SLC34A2) (Rattus norvegicus, UniProt Q9JJ09).
T1 construct: host or cells: HEK293
T1 sequence (Q9JJ09 1-695): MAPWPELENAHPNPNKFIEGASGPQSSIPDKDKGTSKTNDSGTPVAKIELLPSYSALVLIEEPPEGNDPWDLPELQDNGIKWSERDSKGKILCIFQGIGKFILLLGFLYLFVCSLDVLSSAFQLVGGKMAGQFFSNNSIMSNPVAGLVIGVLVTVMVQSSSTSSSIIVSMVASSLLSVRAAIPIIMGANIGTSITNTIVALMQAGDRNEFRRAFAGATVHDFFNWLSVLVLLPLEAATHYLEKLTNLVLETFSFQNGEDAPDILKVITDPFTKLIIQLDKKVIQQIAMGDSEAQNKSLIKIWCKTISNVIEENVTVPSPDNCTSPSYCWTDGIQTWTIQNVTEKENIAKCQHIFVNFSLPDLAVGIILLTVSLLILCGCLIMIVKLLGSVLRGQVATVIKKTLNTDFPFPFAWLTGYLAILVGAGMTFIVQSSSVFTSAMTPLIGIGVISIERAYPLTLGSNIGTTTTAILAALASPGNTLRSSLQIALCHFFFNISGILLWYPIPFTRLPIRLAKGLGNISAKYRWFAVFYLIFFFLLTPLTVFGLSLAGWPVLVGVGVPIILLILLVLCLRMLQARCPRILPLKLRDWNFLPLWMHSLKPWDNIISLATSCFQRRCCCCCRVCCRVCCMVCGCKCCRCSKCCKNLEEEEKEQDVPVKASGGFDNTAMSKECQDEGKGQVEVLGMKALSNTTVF
Nature of the test: NaP2b-mediated Pi transport (33P uptake) in transfected HEK293 cells, rat NaP2b. Format: cell-based. The conditions noted are these: Structure (V) examples, Table 2; rat NaP2b, HEK293; read-out: pIC50 Range (converted). In outline: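 HEK293 cells transiently transfected with NaP2b cDNA, endogenous PiT transport suppressed; ^33P-phosphate uptake measured in sodium vs choline buffer (100 uM KH2PO4, pH 7.4) for 3–30 min at room temperature. Twelve concentrations, 0.1 nM–30 uM, in duplicate; uptake by scintillation counting, pIC50 calculated.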

Regarding `O=C(NCCN1CCOCC1)c1cccc(C(=O)Nc2ccc(N3CCCCC3)cc2C(=O)N/N=C/c2ccc(Cl)c(C(F)(F)F)c2)c1` [Ex. 53, (E)-N^1-(2-(2-(4-chloro-3-(trifluoromethyl)benzylidene)hydrazinecarbonyl)-4-(piperidin-1-yl)phenyl)-N3-(2-morpholinoethyl)isophthalamide], the IC50 was 100 to 794 nM.

For the molecule `COCCNC(=O)CCSCc1cccc(C(=O)Nc2ccc(N3CCCCC3)cc2C(=O)N/N=C/c2ccc(Cl)c(C(F)(F)F)c2)c1` [Ex. 49, (E)-N-(2-(2-(4-chloro-3-(trifluoromethyl)benzylidene)hydrazinecarbonyl)-4-(piperidin-1-yl)phenyl)-3-((3-(2-methoxyethylamino)-3-oxopropylthio)methyl)benzamide], the IC50 is 100 to 794 nM.

The record behind these values is patent US20140023611A1 (priority 2010, published 2014).
